# Results as given in patent US10537541B2, “Treatment of focal segmental glomerular sclerosis (FSGS) using therapeutically effective oral doses of 10-nitro-9(E)-octadec-9-enoic acid” (Complexa, Inc., priority 2015, dated 2020).
# Key:
# healthy male subjects = assay: Pharmacokinetic interaction study in healthy males: safety and tolerability; type: in vivo, human; details: pravastatin 40 mg, 10 healthy males
# Description: Safety and tolerability was evaluated throughout the study. The timing of discharge was determined by the Investigator or designee based on safety and tolerability assessment. On dosing days, subjects remained in the research unit for a minimum of 1 h after dosing prior to discharge. On Day 4, on the first day of 10-nitro-9(E)-octadec-9-enoic acid dosing, subjects remained in the unit for 4 to 6 h after dosing prior to discharge to assess safety and tolerability.
# Safety and PK assessments were evaluated throughout the study. During the in-house portion of the study, urine was collected over the 24-h period on Day 2 and Day 12.
# Safety was evaluated by physical examinations; adverse events (AEs); vital signs (blood pressure, heart rate, respiratory rate); clinical laboratory values (hematology, biochemistry, and urinalysis), specifically, serum Mg and CPK and electrocardiograms (ECGs).
# Triplicate ECGs were obtained just prior to the start of dosing on Day 1 and single ECGs were obtained at all other time points. The average of the 3 ECG interval measurements at the pre-dose time point was considered as baseline. All 12-Lead ECGs were obtained after the subject has rested in a fully supine position for at least 10 minutes. There were no clinically significant abnormalities reported on any electrocardiogram (ECG) parameter. There were no QT/QTcF interval prolongations observed during the study.
# [1] = test system: deoxycorticosterone acetate (DOCA)/salt-induced model of FSGS; assay: DOCA/salt-induced mouse model of FSGS: renoprotection, body weight, blood pressure, organ/body weight ratios; type: in vivo, mice (129/sv strain); details: DOCA/salt mice, 4 weeks
# Description: 10-nitro-9(E)-octadec-9-enoic acid, given orally after onset of renal injury, was evaluated for efficacy in a model for Focal Segmental Glomerular Sclerosis (FSGS) in humans. […] Mice were uni-nephrectomized and, after two weeks, implanted subcutaneously with DOCA (50 mg, 21-day release) or placebo sustained release pellets, with pellet replacement 3 weeks later. All groups, except the sham control group, also received 1% NaCl in tap water. 10-nitro-9(E)-octadec-9-enoic acid (daily oral gavage, 2.5 or 12.5 mg/kg) or enalapril (20 mg/kg/day in drinking water) treatments began 2 weeks after the first DOCA implantation and continued for 4 weeks. Enalapril was included for comparison because it is used as standard of care for FSGS and this is a positive control for the model.
# (§1) Induction of model: Male mice (129/sv strain) were purchased from Taconic Labs. The animals were uninephrectomized (Unx) at 6 weeks of age by the vendor and shipped one week after surgery. At 2 weeks post Unx, a DOCA or placebo pellet (21-day release pellets, 50 mg/pellet, Innovative Research of America, Sarasota, Fla.) was implanted s.c. All mice were then placed on a semisynthetic diet which contained a moderate fat content and a low phytoestrogen/anti-oxidant level, which approximates a normal human diet (4). A second DOCA or placebo pellet was implanted three weeks later.
# (§2) Treatment: Mice were treated with placebo, 10-nitro-9(E)-octadec-9-enoic acid at a dose of 2.5 and 12.5 mg/kg, or enalapril (standard of care) for 4 weeks by oral gavage starting 2 weeks after the first DOCA implantation. One percent NaCl in tap water was given to each group except the sham control group. Body weight was measured weekly, and doses were readjusted based on the current body weight. Urine and blood samples were collected prior to treatment and at week 2 and 4 of treatment. Mice were terminated at week 4. Data is presented as the mean+SEM for the number of animals listed in each group.
# [2] = test system: deoxycorticosterone acetate (DOCA)/salt-induced model of FSGS; assay: DOCA salt study: histological assessment of kidney; type: in vivo, mice (129/sv strain); details: DOCA/salt mice; enalapril 20 mg/kg/d in drinking water, 4 weeks
# Description: as §1, §2
# Histological Assessment: Formalin fixed, paraffin embedded kidneys were sectioned at 3 microns and stained with hematoxylin and eosin (H&E), periodic acid-Schiff (PAS) and Masson's Trichrome for histological analysis. Slides were blindly evaluated by an experienced pathology investigator. Glomerular and tubular pathology, interstitial inflammation and interstitial fibrosis were semi-quantitatively scored on a scale of 0-4 as follows: 0=normal; 1=mild; 2=moderate; 3=marked; 4=severe.
# Glomerular hypertrophy was evaluated by measuring glomerular area and expressed as a mean value of 50 glomeruli per kidney. Glomerular hypertrophy is an important marker for diabetic and hypertensive-mediated chronic kidney disease. […] This finding is consistent with unchanged gene expression profile for podocyte markers (Table 2), and seems reasonable given that the disease was relatively modest.
# [3] = test system: deoxycorticosterone acetate (DOCA)/salt-induced model of FSGS; assay: DOCA salt study: glomerular filtration rate (inulin); type: in vivo, mice (129/sv strain); details: DOCA/salt mice; enalapril 20 mg/kg/d in drinking water, 4 week timepoint
# Description: Induction of model: Male mice (129/sv strain) were purchased from Taconic Labs. The animals were uninephrectomized (Unx) at 6 weeks of age by the vendor and shipped one week after surgery. At 2 weeks post Unx, a DOCA or placebo pellet (21-day release pellets, 50 mg/pellet, Innovative Research of America, Sarasota, Fla.) was implanted s.c. All mice were then placed on a semisynthetic diet which contained a moderate fat content and a low phytoestrogen/anti-oxidant level, which approximates a normal human diet (4). A second DOCA or placebo pellet was implanted three weeks later. […] One percent NaCl in tap water was given to each group except the sham control group. Body weight was measured weekly, and doses were readjusted based on the current body weight. Urine and blood samples were collected prior to treatment and at week 2 and 4 of treatment. Mice were terminated at week 4. Data is presented as the mean+SEM for the number of animals listed in each group. Glomerular Filtration Rate: Glomerular filtration rate (GFR) was performed at the 4 week timepoint using a FIT-GFR test kit for inulin according to manufacturer's instructions (BioPal, Worcester, Mass.). […] Serum was isolated and quantified by an inulin ELISA. Inulin serum clearance was determined by nonlinear regression using a one phase exponential decay formula according to manufacturer's instructions.
# [4] = test system: deoxycorticosterone acetate (DOCA)/salt-induced model of FSGS; assay: DOCA salt study: RT-PCR analysis of kidney gene expression; type: in vivo, mice (129/sv strain); details: DOCA/salt mice kidney
# Description: as §1, §2
# RT-PCR Analysis of Gene Expression: A slice of kidney from each mouse was placed in Trizol solution (Invitrogen) immediately after harvesting and stored at −80° C. until analysis. Tissues were homogenized using a bead mill in 0.5 ml of Trizol solution and total RNA was extracted with chloroform (Sigma) and purified using standard RNeasy mini kit (Qiagen), with on column DNase 1 (Qiagen) digestion to avoid non-specific fluorescence emission derived from the recognition of contaminating genomic DNA by the probe, according to manufacturer's recommendation. RNA samples were eluted in 30 μl of nuclease-free water and quantified using a Nanodrop. cDNA was generated from 2 μg of RNA by using Clontech Sprint PowerScript reagents according to manufacturer's protocol. Fluorogenic probes specific for genes assayed in the report were purchased from Applied Biosystems. PCR amplification and analysis of PCR reaction were performed and monitored using an ABI Prism 7900HT Sequence Detection System (TaqMan, Perkin-Elmer Applied Biosystem). Data analysis was carried out by using the Sequence Detection Systems v2.3 program (Applied Biosystems). For each cDNA sample the Ct value of each target sequence was normalized to reference gene (Ribosomal RNA-18S), and shown as fold changes to control group. Statistical analyses for gene expression data was performed using a two-tailed Student's t-test.
# [5] = test system: deoxycorticosterone acetate (DOCA)/salt-induced model of FSGS; assay: DOCA salt study: urinary isoprostane and tetranor-PGDM by LC-MS; type: in vivo, mice (129/sv strain); details: DOCA/salt mice; end time point
# Description: as §1, §2
# Isoprostanes are a unique series of prostaglandin-like compounds formed in vivo via a non-enzymatic mechanism involving the free radical-initiated peroxidation of arachidonic acid. It has been shown that 8-iso-PGF2a (15-F2t-isoprostane) is the isoprostane that correlates best with increasing oxidative stress. Therefore, to assess the effect of treatment on oxidative stress, this isoform was measured using LC-MS. Also measured was tetranor-PGDM, a urinary metabolite of prostaglandin D2. […] On the other hand, elevated tetranor-PGDM was lowered with treatment of 10-nitro-9(E)-octadec-9-enoic acid and enalapril at the end time point (FIG. 18).
# [6] = test system: deoxycorticosterone acetate (DOCA)/salt-induced model of FSGS; assay: DOCA salt study: serum and urine analyses; type: in vivo, mice (129/sv strain); details: DOCA/salt mice, enalapril 20 mg/kg/d in drinking water
# Description: Induction of model: Male mice (129/sv strain) were purchased from Taconic Labs. The animals were uninephrectomized (Unx) at 6 weeks of age by the vendor and shipped one week after surgery. At 2 weeks post Unx, a DOCA or placebo pellet (21-day release pellets, 50 mg/pellet, Innovative Research of America, Sarasota, Fla.) was implanted s.c. All mice were then placed on a semisynthetic diet which contained a moderate fat content and a low phytoestrogen/anti-oxidant level, which approximates a normal human diet (4). A second DOCA or placebo pellet was implanted three weeks later. […] One percent NaCl in tap water was given to each group except the sham control group. Body weight was measured weekly, and doses were readjusted based on the current body weight. Urine and blood samples were collected prior to treatment and at week 2 and 4 of treatment. Mice were terminated at week 4. Data is presented as the mean+SEM for the number of animals listed in each group. Serum and urine analyses: Blood samples were collected from the retro-orbital sinus and samples were separated to serum. Serum and urine creatinine (enzymatic assay), blood urea nitrogen (BUN), and serum cholesterol were measured using a Cobas 400 plus bioanalyzer (Roche Diagnostics, IN). Urine samples were collected for 24 h using metabolic cages. Urine albumin was measured by immunoassay Albuwell M (Exocell Inc., Philadelphia, Pa.). Immuno-ELISA according to manufacturer's instructions was used to measure urine nephrin (Exocell Inc., Philadelphia, Pa.) and MCP-1 (Thermal Scientific, Waltham, Mass.). Kim-1 was measured using the E-90KIM Mouse ELISA Kit (Immunology Consultants Laboratory, Portland, Oreg.). Statistical analyses for serum and urine data was performed using a two-tailed Student's t-test.
# [7] = Pharmacokinetic interaction study with pravastatin and Vytorin in healthy males: PK; details: Vytorin 10 mg/20 mg, Day 12 with 10-nitro-9(E)-octadec-9-enoic acid 150 mg daily versus Day 2 alone
# [8] = enalapril 20 mg/kg/d, normalized to 18S, fold changes to control group, mean ± SEM
smiles,measurement,setting,value
"CC[C@H](C)C(=O)O[C@H]1C[C@H](O)C=C2C=C[C@H](C)[C@H](CC[C@@H](O)C[C@@H](O)CC(=O)O)[C@H]21 [pravastatin, reference compound]",subjects with abdominal discomfort after administration,healthy male subjects,1 subject
"CCOC(=O)[C@H](CCc1ccccc1)N[C@@H](C)C(=O)N1CCC[C@H]1C(=O)O [Enalapril, reference compound]",blood pressure (mean arterial),[1]; all treatments,"none of the treatments, including enalapril, had a significant effect"
same,kidney/body weight and heart/body ratios,[1]; enalapril 20 mg/kg/d in drinking water,no effect
same,"glomerular hypertrophy (glomerular area, mean of 50 glomeruli per kidney)",[2],did not have an effect
same,glomerulosclerosis: average scores and percent of glomerular damage (sclerosis),[2],not significantly reduced
same,GFR (inulin method),[3],trend toward an increase
same,"gene expression of MCP-1, osteopontin, collagen III, fibronectin and PAI-1 (mRNA, qRT-PCR)","[4]; enalapril 20 mg/kg/d in drinking water, 4 weeks",neither the high dose 10-nitro-9(E)-octadec-9-enoic acid nor enalapril had an effect
same,Nephrin gene expression,[4]; [8],1.091 ± 0.14
same,Podocin gene expression,[4]; [8],0.9991 ± 0.095
same,urinary tetranor-PGDM,[5],lowered
same,"Kim-1 in urine, relative to the DOCA group",[6],trended to be decreased
same,albumin excretion,[6]; 4 weeks,markedly reduced
same,plasma cholesterol,[6]; 4 weeks,reduced
same,urinary nephrin levels,[6]; 4 weeks,markedly reduced
CCC(C)(C)C(=O)O[C@H]1C[C@@H](C)C=C2C=C[C@H](C)[C@H](CC[C@@H]3C[C@@H](O)CC(=O)O3)[C@H]21 [simvastatin],increase of mean AUC(0-t) on co-administration,[7],25%
same,increase of mean Cmax on co-administration,[7],10%
O=C1[C@H](CC[C@H](O)c2ccc(F)cc2)[C@@H](c2ccc(O)cc2)N1c1ccc(F)cc1 [ezetimibe],decrease of mean AUC(0-t) on co-administration,[7],5%
same,decrease of mean Cmax on co-administration,[7],20%
